Counter-ions that a name gives are not always drawn.
Target: T1, human mGlu7 (Homo sapiens, UniProt Q14831)
T1 construct: expressed in transfected cells
Assay: mGlu7 assay on HEK-expressing human mGlu7: fluorescent cell-based Ca2+ mobilization (FLIPR384), inhibition of EC80 L-AP4 response
Details: HEK-293 cells expressing hmGlu7, EC80 L-AP4 stimulation; mean of at least three independent experiments in duplicate; read-out: Ca^2+ Flux (mean IC50)
From the text: mGlu7 Assay on HEK-Expressing Human mGlu7
The cDNA encoding the human metabotropic glutamate 7 receptor (hmGlu7), (accession number NM_181874.2, NCBI Nucleotide database browser), was subcloned into an expression vector containing also the hygromycin resistance gene. In parallel, the cDNA encoding a G protein allowing redirection of the activation signal to intracellular calcium flux was subcloned into a different expression vector containing also the Puromycin resistance gene. Transfection of both these vectors into HEK293 cells with PolyFect reagent (Qiagen) according to supplier's protocol, and hygromycin and puromycin treatment allowed selection of antibiotic resistant cells which had integrated stably one or more copies of the plasmids. Positive cellular clones expressing hmGlu7 were identified in a functional assay measuring changes in calcium fluxes in response to glutamate and L-AP4 or known mGlu7 orthosteric antagonists.
HEK-293 cells expressing hmGlu7 were maintained in media containing DMEM, Fetal Bovine Serum (10%), Glutamax™ (2 mM), penicillin (100 units/mL), streptomycin (100 μg/mL), geneticin (100 μg/mL) and hygromycin-B (40 μg/mL) and puromycin (1 μg/mL) at 37° C. with 5% CO2 in a humidified atmosphere.
Fluorescent Cell Based- Ca^+ Mobilization Assay Human mGlu7 HEK-293 cells were plated out 24 hours prior to a fluorescent cell-based calcium mobilization assay using FLIPR^384 assay (Molecular Device, Sunnyvale, CA, USA) in black-walled, clear-bottomed, poly-L-ornithine-coated 384-well plates at a density of 25,000 cells/well in a glutamine/glutamate free DMEM medium containing fetal bovine serum (10%), penicillin (100 units/mL), streptomycin (100 μg/mL) and doxycyline (1 μg/ml) at 37° C. with 5% CO2 in a humidified atmosphere.
On the day of the assay, the medium was aspirated and the cells were loaded with a 3 μM solution of Fluo4-AM (LuBioScience, Lucerne, Switzerland) in 0.03% pluronic acid. After 1 hour at 37° C./5% CO2, the non incorporated dye was removed by washing cell plate with the assay buffer. All assays were performed in a pH 7.4 buffered-solution containing 20 mM HEPES, 143 mM NaCl, 6 mM KCl, 1 mM MgSO4, 1 mM CaCl2, 0.125 mM sulfinpyrazone and 0.1% glucose.
After 10 s of basal fluorescence recording, various concentrations of the compounds of the invention were added to the cells. Changes in fluorescence levels were first monitored for 180 s in order to detect any agonist activity of the compounds. Then the cells were stimulated by an EC80 L-AP4 concentration for an additional 110 s in order to measure inhibiting activities of the compounds of the invention. EC80 L-AP4 concentration is the concentration giving 80% of the maximal glutamate response.
The concentration-response curves of L-AP4 or representative compounds of the present invention were generated using the Prism GraphPad software (Graph Pad Inc, San Diego, USA). The curves were fitted to a four-parameter logistic equation: […]
allowing determination of IC50 values.
The Table 3 below represents the mean IC50 obtained from at least three independent experiments of selected molecules performed in duplicate.

T1 sequence (Q14831 35-922 isoform Q14831-2 limits assumed): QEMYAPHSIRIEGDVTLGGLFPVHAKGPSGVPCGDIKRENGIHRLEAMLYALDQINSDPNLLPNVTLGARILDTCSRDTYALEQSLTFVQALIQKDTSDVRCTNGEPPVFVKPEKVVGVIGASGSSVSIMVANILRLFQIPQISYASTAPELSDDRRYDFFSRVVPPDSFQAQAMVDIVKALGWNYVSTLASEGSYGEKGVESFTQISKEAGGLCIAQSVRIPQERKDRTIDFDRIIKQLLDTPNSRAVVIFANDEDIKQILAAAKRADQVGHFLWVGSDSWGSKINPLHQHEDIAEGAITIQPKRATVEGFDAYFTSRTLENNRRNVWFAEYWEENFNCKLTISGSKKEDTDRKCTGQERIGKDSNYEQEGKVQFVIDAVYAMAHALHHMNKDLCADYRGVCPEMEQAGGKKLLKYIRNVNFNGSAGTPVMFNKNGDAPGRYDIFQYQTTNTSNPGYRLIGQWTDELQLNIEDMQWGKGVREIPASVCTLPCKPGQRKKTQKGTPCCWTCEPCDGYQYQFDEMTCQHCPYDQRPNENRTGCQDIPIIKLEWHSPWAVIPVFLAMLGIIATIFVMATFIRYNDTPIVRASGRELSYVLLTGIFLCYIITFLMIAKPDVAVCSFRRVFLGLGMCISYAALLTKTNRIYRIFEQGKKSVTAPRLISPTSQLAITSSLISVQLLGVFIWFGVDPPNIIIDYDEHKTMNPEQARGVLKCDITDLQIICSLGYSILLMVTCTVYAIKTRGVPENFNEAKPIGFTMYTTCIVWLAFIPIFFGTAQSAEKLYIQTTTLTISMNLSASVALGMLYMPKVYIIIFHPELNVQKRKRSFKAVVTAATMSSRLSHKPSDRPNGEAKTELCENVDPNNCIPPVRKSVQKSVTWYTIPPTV

Row | Structure (SMILES) | IC50
1 | COc1cccc(-c2ccc3c(=O)n(C4CCOCC4)ncc3c2)c1C [1-60] | 100 to 1000 nM
2 | O=c1c2ccc(-c3cc(F)cc(N4CCC4)c3)cc2cnn1-c1ccccn1 [1-49] | 100 to 1000 nM
3 | Cc1ccc(-c2ccc3c(=O)n(-c4ccccn4)ncc3c2)c(C)c1 [1-10] | < 100 nM
4 | COc1cnc(-n2ncc3cc(-c4cccc(OC)c4C)ccc3c2=O)nc1 [1-55] | < 100 nM
5 | Cc1cnc(-n2ncc3cc(-c4cccc5c4CCN5C)ccc3c2=O)nc1 [1-56] | < 100 nM
6 | CCOc1cccc(-c2ccc3c(=O)n(CC)ncc3c2)c1 [1-7] | 100 to 1000 nM
7 | COc1cccc(-c2ccc3c(=O)n(-c4ccccn4)ncc3c2)c1C [1-35] | < 100 nM
8 | O=c1c2ccc(-c3cccc(OC4CC4)c3Cl)cc2cnn1-c1ccccn1 [1-34] | < 100 nM
9 | O=c1c2ccc(-c3nccc(N4CCC4)n3)cc2cnn1-c1ccccn1 [1-50] | 1000 to 10000 nM
10 | COc1ccc(-c2ccc3c(=O)n(-c4ccccn4)ncc3c2)cc1 [1-17] | 100 to 1000 nM
11 | COc1cccc(-c2ccc3c(=O)n(-c4ncccc4F)ncc3c2)c1C [1-58] | < 100 nM
12 | COc1cccc(-c2ccc3c(=O)n(-c4ncccc4F)ncc3c2)c1 [1-29] | 100 to 1000 nM
13 | O=c1c2ccc(-c3cc(N4CCC4)ccn3)cc2cnn1-c1ccccn1 [1-53, 6-(4-(Azetidin-1-yl)pyridin-2-yl)-2-(pyridin-2-yl)phthalazin-1(2H)-one] | 1000 to 10000 nM
14 | O=c1c2ccc(-c3cccc4c3ccn4C3CC3)cc2cnn1-c1ncccn1 [1-48] | 100 to 1000 nM
15 | CCn1ncc2cc(-c3cccc(N4CCCC4)c3)ccc2c1=O [1-13, 2-Ethyl-6-(3-(pyrrolidin-1-yl)phenyl)phthalazin-1(2H)-one] | 1000 to 10000 nM
16 | CCn1ncc2cc(-c3cccc(OC)c3)ccc2c1=O [1-3] | 100 to 1000 nM

Row | Structure (SMILES) | IC50
17 | Cc1ccc(-c2ccc3c(=O)n(-c4ccc(S(C)(=O)=O)cc4)ncc3c2)c(C)c1 [1-8, 6-(2,4-Dimethylphenyl)-2-(4-(methylsulfonyl)phenyl)phthalazin-1(2H)-one] | 100 to 1000 nM
18 | COc1cccc(-c2ccc3c(=O)n(-c4ccccn4)ncc3c2)c1Cl [1-33] | < 100 nM
19 | O=c1c2ccc(-c3cc(N4CCC4)ccc3F)cc2cnn1-c1ccccn1 [1-52] | < 100 nM
20 | O=c1c2ccc(-c3cccc(N4CCC4)c3)cc2cnn1-c1ccc(F)cn1 [1-24, 6-(3-(Azetidin-1-yl)phenyl)-2-(5-fluoropyridin-2-yl)phthalazin-1(2H)-one] | 100 to 1000 nM
21 | COc1cccc(-c2ccc3c(=O)n(CCN4CCOCC4)ncc3c2)c1C [1-66] | 100 to 1000 nM
22 | O=c1c2ccc(-c3cccc(N4CCC4)c3)cc2cnn1Cc1ccccc1 [1-20] | 100 to 1000 nM
23 | COc1cccc(-c2ccc3c(=O)n(-c4ncc(F)cn4)ncc3c2)c1C [1-62] | < 100 nM
24 | COc1cccc(-c2ccc3c(=O)n(-c4ncccn4)ncc3c2)c1C [1-42] | < 100 nM
25 | O=c1c2ccc(-c3cccc4c3ccn4C3CC3)cc2cnn1-c1ccccn1 [1-47] | 1000 to 10000 nM
26 | Cc1ccc(-c2ccc3c(=O)n(-c4ccccc4Cl)ncc3c2)c(C)c1 [1-5, 2-(2-Chlorophenyl)-6-(2,4-dimethylphenyl)phthalazin-1(2H)-one] | 100 to 1000 nM
27 | COc1cccc(-c2ccc3c(=O)n(-c4ncccn4)ncc3c2)c1Cl [1-40] | < 100 nM
28 | O=c1c2ccc(-c3cccc(N4CCC4)c3)cc2cnn1-c1ncccn1 [1-46] | < 100 nM
29 | Cc1ccc(-c2ccc3c(=O)n(-c4ccc(C(C)O)cc4)ncc3c2)c(C)c1 (stereo not drawn) [1-14, 6-(2,4-Dimethylphenyl)-2-(4-(1-hydroxyethyl)phenyl)phthalazin-1(2H)-one] | 100 to 1000 nM
30 | O=c1c2ccc(-c3cccc(OC4CC4)c3Cl)cc2cnn1-c1ncccn1 [1-41] | 100 to 1000 nM
31 | CN1CCCc2c(-c3ccc4c(=O)n(-c5ccccn5)ncc4c3)cccc21 [1-61] | < 100 nM
32 | COc1cnc(-n2ncc3cc(-c4cccc5c4CCN5C)ccc3c2=O)nc1 [1-57] | < 100 nM

The remaining lines, values ahead:

Row | IC50 | Structure (SMILES)
33 | 100 to 1000 nM | COc1cccc(-c2ccc3c(=O)n(-c4ncc(N5CCCCC5)cn4)ncc3c2)c1C [1-71]
34 | 100 to 1000 nM | Cc1ccc(-c2ccc3c(=O)n(-c4ncc(N5CCOCC5)cn4)ncc3c2)c(C)c1 [1-81]
35 | < 100 nM | Cc1ccc(-c2ccc3c(=O)n(-c4ncc(N5CCC(O)C5)cn4)ncc3c2)c(C)c1 (stereo not drawn) [1-82]
36 | 100 to 1000 nM | COc1cccc(-c2ccc3c(=O)n(-c4ccc(S(C)(=O)=O)cn4)ncc3c2)c1C [1-68]
37 | 100 to 1000 nM | COc1cccc(-c2ccc3c(=O)n(-c4ncc(NCC(C)(C)N(C)C)cn4)ncc3c2)c1C [1-96]
38 | < 100 nM | COc1cccc(-c2ccc3c(=O)n(-c4ncccn4)ncc3c2)c1F [1-111]
39 | < 100 nM | CN1CCCc2c(-c3ccc4c(=O)n(-c5ncccn5)ncc4c3)cccc21 [1-108]
40 | < 100 nM | COc1cccc(-c2ccc3c(=O)n(-c4ncc(NCCn5cncn5)cn4)ncc3c2)c1C [1-106]
41 | 1000 to 10000 nM | COc1nccc(-c2ccc3c(=O)n(-c4ncccn4)ncc3c2)c1F [1-112]
42 | 100 to 1000 nM | COc1cccc(-c2ccc3c(=O)n(-c4ccc(NC(=O)[C@@H](N)C(C)C)cn4)ncc3c2)c1C [1-98, (S)-2-Amino-N-(6-(6-(3-methoxy-2-methylphenyl)-1-oxophthalazin-2(1H)-yl)pyridin-3-yl)-3-methylbutanamide hydrochloride]
43 | 100 to 1000 nM | COc1cccc(-c2ccc3c(=O)n(-c4ccc(NC(=O)[C@@H]5CCCN5)cn4)ncc3c2)c1C [1-99]
44 | 100 to 1000 nM | O=c1c2ccc(-c3cccc(N4CCC4)c3)cc2cnn1-c1ncc(N2CCC(O)C2)cn1 (stereo not drawn) [1-83]
45 | < 100 nM | COc1cccc(-c2ccc3c(=O)n(-c4ncc(Cl)cn4)ncc3c2)c1C [1-90]
46 | 100 to 1000 nM | COc1cccc(-c2ccc3c(=O)n(-c4ncc(N5CCCC(N(C)C)C5)cn4)ncc3c2)c1C (stereo not drawn) [1-103]
47 | < 100 nM | COc1cccc(-c2ccc3c(=O)n(-c4ncc(N5CCCC(O)C5)cn4)ncc3c2)c1C (stereo not drawn) [1-73]
48 | 100 to 1000 nM | COc1cccc(-c2ccc3c(=O)n(-c4ncc(NCC(C)(C)OC)cn4)ncc3c2)c1C [1-110, 6-(3-Methoxy-2-methylphenyl)-2-(5-((2-methoxy-2-methylpropyl)amino)pyrimidin-2-yl)phthalazin-1(2H)-one]

Row | IC50 | Structure (SMILES)
49 | 100 to 1000 nM | COc1cccc(-c2ccc3c(=O)n(-c4ncc(NCCN5CCCC5)cn4)ncc3c2)c1C [1-95]
50 | < 100 nM | COc1cccc(-c2ccc3c(=O)n(-c4ccc(NC(=O)[C@@H](N)CO)cn4)ncc3c2)c1C [1-102]
51 | 100 to 1000 nM | COc1cccc(-c2ccc3c(=O)n(-c4ncc(NC(C)(C)CN(C)C)cn4)ncc3c2)c1C [1-104]
52 | 100 to 1000 nM | CNCCNc1cnc(-n2ncc3cc(-c4cccc(OC)c4C)ccc3c2=O)nc1 [1-105]
53 | < 100 nM | COc1cccc(-c2ccc3c(=O)n(-c4ccc(C(=O)NC5CCC(O)C5)cn4)ncc3c2)c1C (stereo not drawn) [1-94]
54 | < 100 nM | O=c1c2ccc(-c3cccc(N4CCC4)c3)cc2cnn1-c1ncc(F)cn1 [1-76]
55 | < 100 nM | COc1cccc(-c2ccc3c(=O)n(-c4ncc(N5CCC(O)CC5)cn4)ncc3c2)c1C [1-72]
56 | < 100 nM | COc1cccc(-c2ccc3c(=O)n(-c4ncc(NCCn5ccnc5)cn4)ncc3c2)c1C [1-97]
57 | < 100 nM | COc1cccc(-c2ccc3c(=O)n(-c4ncc(NC(C)(C)CO)cn4)ncc3c2)c1C [1-100]
58 | 100 to 1000 nM | COc1cccc(-c2ccc3c(=O)n(-c4ncc(OC5CNC5)cn4)ncc3c2)c1C [1-69]
59 | 100 to 1000 nM | COc1cccc(-c2ccc3c(=O)n(-c4ncc(N5CCCC5)cn4)ncc3c2)c1C [1-70]
60 | < 100 nM | COc1cccc(-c2ccc3c(=O)n(-c4ccc(C(=O)N5CCC(O)C5)cn4)ncc3c2)c1C (stereo not drawn) [1-93]
61 | 100 to 1000 nM | COc1cccc(-c2ccc3c(=O)n(-c4ncc(N5CCSCC5)cn4)ncc3c2)c1C [1-78]
62 | 100 to 1000 nM | COc1cccc(-c2ccc3c(=O)n(-c4ncc(N5CC6(COC6)C5)cn4)ncc3c2)c1C [1-84, 2-(5-(2-Oxa-6-azaspiro[3.3]heptan-6-yl)pyrimidin-2-yl)-6-(3-methoxy-2-methylphenyl)phthalazin-1(2H)-one]
63 | < 100 nM | COc1cccc(-c2ccc3c(=O)n(-c4ncc(NCCN(C)C)cn4)ncc3c2)c1C [1-80]

Reference: patent US20240327375A1, “SUBSTITUTED HETEROBICYCLIC DERIVATIVES AS NEGATIVE ALLOSTERIC MODULATORS OF MGLU7 RECEPTOR” (priority 2021, published 2024)
